Reference: patent US7825112B2, “2-carbamide-4-phenylthiazole derivatives, preparation thereof and therapeutic use thereof” (sanofi-aventis, priority 2006, dated 2010)

Legend:
[1] = biological target: T1, human CCR2b receptor (Homo sapiens, UniProt P41597); experiment: [125I]-MCP-1 binding displacement on CHO-K1-CCR2B cells (inhibiting activity on cells expressing the human CCR2b receptor); conditions: iodinated MCP-1 0.1 nM, 1 h 30 minutes at ambient temperature, read-out: Cl50 (concentration which inhibited 50% of the activity of the CCR2b receptor)
T1 construct: host or cells: CHO-K1
T1 sequence (P41597 1-360 isoform P41597-2): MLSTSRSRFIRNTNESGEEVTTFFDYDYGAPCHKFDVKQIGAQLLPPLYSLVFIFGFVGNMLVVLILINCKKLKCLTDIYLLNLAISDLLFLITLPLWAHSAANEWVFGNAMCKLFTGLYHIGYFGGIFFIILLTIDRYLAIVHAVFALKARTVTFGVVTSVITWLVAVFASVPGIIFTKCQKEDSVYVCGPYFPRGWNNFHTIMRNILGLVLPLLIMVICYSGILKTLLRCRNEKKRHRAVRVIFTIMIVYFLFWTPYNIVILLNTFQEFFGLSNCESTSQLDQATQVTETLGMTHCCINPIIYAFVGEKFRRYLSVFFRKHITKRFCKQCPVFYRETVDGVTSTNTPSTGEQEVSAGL
Protocol: The inhibiting activity of the compounds according to the invention was measured on cells expressing the human CCR2b receptor. The concentration of natural hMCP-1 agonist which inhibited 50% (Cl50) of the activity of the CCR2b receptor was 0.57 nM.
The following are brought into contact for 1 h 30 minutes at ambient temperature, in Millipore GF/B filter plates (ref. MAFBNOB 10 or 50): 50 μl of compound at 3×10^−5 M in the reaction buffer or cold MCP-1 range ((R & D Systems). Recombinant human MCP-1) (final concentration of compound: 10^−5 M), and 50 μl of iodinated MCP-1 ([^125 l]-MCP-1 human recombinant Bolton+Hunter labelled (Amersham)) at 0.3 nM in distilled water (final concentration of iodinated MCP-1: 0.1 nM), and 50 μl of CHO-K1-CCR2B cells (obtained from Euroscreen Brussels, Belgium) at 6×10^5 cells/ml (final concentration in the reaction buffer: […]). The filters were saturated beforehand with 100 μl of PEI at a final concentration of 0.0125% in PBS, for 72 h at 4° C., and the PEI was removed by filtration. The content of the wells was filtered and washed twice with the reaction buffer, and the filters were left to dry overnight. The following day, 20 μl/well of “Wallac Optiphase Super Mix” scintillant were dispensed. The filters were impregnated for 1 to 2 h and then counted with Trilux Iodine 125 for 1 min.
Reaction buffer=PBS buffer, […], 1 mM CaCl2, 5 mM MgCl2, 0.5% fatty acid-free BSA, adjusted to pH 7.4.

| Compound | IC50 [1] | melting point |
| --- | --- | --- |
| COc1ccc(C2CCCCC2)cc1-c1csc(NC(=O)N2CCN(C3CCOCC3)CC2)n1 [Compound No 11, 4-(tetrahydropyran-4-yl)piperazine-1-carboxylic acid [4-(5-cyclohexyl-2-methoxyphenyl)thiazol-2-yl]amide] | 20 nM | 226 °C |
| CCCCc1ccc(OCC)c(-c2csc(NC(=O)N3CCN(C[C@@H]4CCCN(C5CC5)C4)CC3)n2)c1 [compound 23, 4-((S)-1-cyclopropylpiperidin-3-ylmethyl)piperazine-1-carboxylic acid [4-(5-butyl-2-ethoxyphenyl)thiazol-2-yl]amide] | 8 nM | 86 °C |
| COc1ccc(C2CCCCC2)cc1-c1csc(NC(=O)N2CCN(C[C@@H]3CCCN(CCCCC(=O)O)C3)CC2)n1 [compound 9, 5-((R)-3-{4-[4-(5-cyclohexyl-2-methoxyphenyl)thiazol-2-ylcarbamoyl]piperazin-1-ylmethyl}piperidin-1-yl)pentanoic acid] | 4 nM | 153 °C |
| COc1ccc(C2CCCCC2)cc1-c1csc(NC(=O)N2CCN(C3CCS(=O)(=O)CC3)CC2)n1 [compound 33, 4-(1,1-dioxohexahydro-1λ^6-thiopyran-4-yl)piperazine-1-carboxylic acid [4-(5-cyclohexyl-2-methoxyphenyl)thiazol-2-yl]amide] | 20 nM | 204 °C |
| COc1ccc(C2CCCCC2)cc1-c1csc(NC(=O)N2CCN(C(=O)[C@@H]3CCCN(C4CC4)C3)CC2)n1 [compound 22, 4-((R)-1-cyclopropylpiperidine-3-carbonyl)piperazine-1-carboxylic acid [4-(5-cyclohexyl-2-methoxyphenyl)thiazol-2-yl]amide] | 4 nM |  |
| COc1ccc(C2CCCCC2)cc1-c1csc(NC(=O)N2CCN(C[C@@H]3CCCN(S(=O)(=O)C4CC4)C3)CC2)n1 [compound 29, 4-((S)-1-cyclopropanesulphonylpiperidin-3-ylmethyl)piperazine-1-carboxylic acid [4-(5-cyclohexyl-2-methoxyphenyl)thiazol-2-yl]amide] | 50 nM | 114 °C |
| COc1ccc(C2CCCCC2)cc1-c1csc(NC(=O)N2CCN(C3CCCCC3)CC2)n1 [compound 10, 4-cyclohexylpiperazine-1-carboxylic acid [4-(5-cyclohexyl-2-methoxyphenyl)thiazol-2-yl]amide] | 53 nM | 110 °C |

More lines, now with the values ahead:

| IC50 [1] | melting point | Compound |
| --- | --- | --- |
| 0.57 nM |  | hMCP-1: human monocyte chemotactic protein, CC chemokine group, natural agonist of the CCR2b receptor [reference compound] |
| 39 nM | 118 °C | COc1ccc(C2CCCCC2)cc1-c1csc(NC(=O)N2CCN(C3CCSCC3)CC2)n1 [compound 41, 4-(tetrahydrothiopyran-4-yl)piperazine-1-carboxylic acid [4-(5-cyclohexyl-2-methoxyphenyl)thiazol-2-yl]amide] |
| 73 nM |  | COc1ccc(C2CCCCC2)cc1-c1csc(NC(=O)N2CCN(CC3CCCCN3S(=O)(=O)c3cnn(C)c3C)CC2)n1 (stereo not shown) [compound 45, 4-[1-(1,5-dimethyl-1H-pyrazole-4-sulphonyl)piperidin-2-ylmethyl]piperazine-1-carboxylic acid [4-(5-cyclohexyl-2-methoxyphenyl)thiazol-2-yl]amide] |
| 82 nM | 98 °C | COc1ccc(C2CCCCC2)cc1-c1csc(NC(=O)N2CCN(CC3CCOC(C)(C)C3)CC2)n1 (stereo not shown) [compound 40, 4-(2,2-dimethyltetrahydropyran-4-ylmethyl)piperazine-1-carboxylic acid [4-(5-cyclohexyl-2-methoxyphenyl)thiazol-2-yl]amide] |
